Results published in patent US7825090B2, “Use of ghrelin and unacylated ghrelin compositions for treating insulin resistance” (Alizé Pharma SAS, priority 2004, dated 2010).
“Also recorded” adds a separate entry of the source. No end group written: not given here. *: point of attachment. Octanoyl = CCCCCCCC(=O)*

Assays:
GH deficient subjects [1] = assay: Serum glucose concentrations after i.v. AG, UAG, AG+GH or AG+UAG, before and after a standard lunch; assay type: in vivo, human; details: for effect on serum glucose levels after a standard lunch: GH deficient subjects; for effect on serum glucose levels: first two hours after i.v. administration, before lunch, fasting
Text: (§1) Eight male subjects with a pituitary insufficiency but otherwise healthy, were asked to participate (range 21-69 yrs (age 55±10; mean±standard error of mean or SEM)) and a body mass index of 29.4±2.8 (mean±SEM). […] All subjects were admitted at the Clinical Research Unit. No alcoholic beverages were allowed from the day prior to admission until the end of the study. Also, all subjects were asked to skip the administration of their GH replacement every night prior to each of the 5 admission days. All subjects gave their written informed consent to participate in the study, which had been approved the hospital's Ethical Committee.
(§2) All subjects underwent the following five testing sessions, each after an overnight fast, in random order and at least 1 week apart: 1) placebo (saline 3 ml iv). 2) acylated ghrelin (Neosystem S.A.; Strasbourg, France; 1.0 μg/kg iv, using a bacterial filter system). 3) unacylated ghrelin (Neosystem S.A.; Strasbourg, France; 1.0 μg/kg iv, using a filter system). 4) acylated ghrelin (1.0 μg/kg iv) but this time after the normal GH replacement dose was administered 15 minutes before. 5) acylated ghrelin in combination with unacylated ghrelin (both 1.0 μg/kg iv, but via separate injection sites). All tests started in the morning at 09:30 am, 30′ after one or two indwelling catheters had been placed into an antecubital vein, kept patent by slow infusion of isotonic saline.
(§3) This meal was taken by all subjects all tests days.
(§4) Insulin was assessed with a radioimmunoassay (Medgenix Diagnostics, Brussels, Belgium; intra- and interassay coefficient of variation (CV) 13.7 and 8.0% respectively). Glucose was assessed with an automatic hexokinase method (Roche, Almere, The Netherlands). Free fatty acids were determined with an enzymatic […] method (Wako Chemicals GmbH, Neuss, Germany; intra- and interassay CV 1.1 and 4.1% respectively).
(§5) Differences between the several study days were calculated, using a Newman-Keuls Multiple Comparison one-way ANOVA test (GraphPad Prism 4 for Windows; GraphPad Inc. USA). P-values <0.05 were considered significant. Areas under the curve were calculated using the trapezoid rule.

GH deficient subjects [2] = assay: Serum insulin concentrations after i.v. AG, UAG, AG+GH or AG+UAG, before and after a standard lunch; assay type: in vivo, human; details: for effect on serum insulin levels after a standard lunch: GH deficient subjects; for effect on serum insulin levels: first two hours after i.v. administration, before lunch, fasting
Text: as §1, §2, §3, §4, §5

GH deficient subjects [3] = assay: Serum free fatty acid concentrations after i.v. AG, UAG, AG+GH or AG+UAG, before and after a standard lunch; assay type: in vivo, human; details: compounds administered 2-6 hrs before
Text: as §1, with “Committee. […]” for “Committee.”
as §4
(§6) Differences between the several study days were calculated, using a Newman-Keuls Multiple Comparison one-way ANOVA test (GraphPad Prism 4 for Windows; GraphPad Inc. USA). […] Areas under the curve were calculated using the trapezoid rule.

cloned cells = details: cited from earlier work
GH secretion = details: compared with Ghrelin-28; cited from earlier work
[4] = Serum total and acylated ghrelin concentrations after i.v. bolus injection (radioimmunoassay); design: species or system human; details: in vivo, iv
Text: as §1
All subjects underwent the following five testing sessions, each after an overnight fast, in random order and at least 1 week apart: 1) placebo (saline 3 ml iv). 2) acylated ghrelin (Neosystem S.A.; Strasbourg, France; 1.0 μg/kg iv, using a bacterial filter system). […]
Acylated and total ghrelin concentrations were measured, using a commercially available radioimmunoassay (Linco research Inc. Missouri, USA). […] The lowest level of ghrelin that can be detected by this assay is […] when using a 100 μl sample size. […]
as §6

GH deficient subjects [5] = assay: Insulin sensitivity judged from areas under the curve of glucose, insulin and FFA (FIG. 8, FIG. 9); assay type: in vivo, human
Text: Eight male subjects with a pituitary insufficiency but otherwise healthy, were asked to participate (range 21-69 yrs (age 55±10; mean±standard error of mean or SEM)) and a body mass index of 29.4±2.8 (mean±SEM). […] All subjects were admitted at the Clinical Research Unit. No alcoholic beverages were allowed from the day prior to admission until the end of the study. Also, all subjects were asked to skip the administration of their GH replacement every night prior to each of the 5 admission days. All subjects gave their written informed consent to participate in the study, which had been approved the hospital's Ethical Committee. […] Insulin was assessed with a radioimmunoassay (Medgenix Diagnostics, Brussels, Belgium; intra- and interassay coefficient of variation (CV) 13.7 and 8.0% respectively). Glucose was assessed with an automatic hexokinase method (Roche, Almere, The Netherlands). Free fatty acids were determined with an enzymatic […] method (Wako Chemicals GmbH, Neuss, Germany; intra- and interassay CV 1.1 and 4.1% respectively). Differences between the several study days were calculated, using a Newman-Keuls Multiple Comparison one-way ANOVA test (GraphPad Prism 4 for Windows; GraphPad Inc. USA). […] Areas under the curve were calculated using the trapezoid rule.

Compound	effect on serum glucose levels after a standard lunch (GH deficient subjects [1])	effect on serum glucose levels (GH deficient subjects [1])	effect on serum glucose levels (GH deficient subjects [1]; listed as unacylated ghrelin)	effect on serum insulin levels after a standard lunch (GH deficient subjects [2])	effect on serum insulin levels (GH deficient subjects [2])	effect on serum FFA levels after a standard lunch (GH deficient subjects [3])	Ca2+ fluxes (cloned cells)	induction of GH secretion (GH secretion)	effect on unacylated ghrelin levels [4]	effect on serum glucose levels (GH deficient subjects [1]; listed as acylated ghrelin)	duration of decrease in insulin sensitivity after administration (GH deficient subjects [5]; after administration of acylated ghrelin)	effect on insulin sensitivity (GH deficient subjects [5]; period following lunch, AUC (FIG. 9))
CC(C)C[C@H](NC(=O)[C@H](CCCCN)NC(=O)[C@H](C)NC(=O)[C@@H]1CCCN1C(=O)[C@@H]1CCCN1C(=O)[C@H](CCCCN)NC(=O)[C@H](CCCCN)NC(=O)[C@H](CO)NC(=O)[C@H](CCC(=O)O)NC(=O)[C@H](CCCCN)NC(=O)[C@H](CCCNC(=N)N)NC(=O)[C@H](CCC(N)=O)NC(=O)[C@H](CCC(N)=O)NC(=O)[C@@H](NC(=O)[C@H](CCCNC(=N)N)NC(=O)[C@H](CCC(N)=O)NC(=O)[C@H](Cc1c[nH]cn1)NC(=O)[C@H](CCC(=O)O)NC(=O)[C@@H]1CCCN1C(=O)[C@H](CO)NC(=O)[C@H](CC(C)C)NC(=O)[C@H](Cc1ccccc1)NC(=O)[C@H](CO)NC(=O)[C@H](CO)NC(=O)CN)C(C)C)C(=O)N[C@@H](CCC(N)=O)C(=O)N1CCC[C@H]1C(=O)N[C@@H](CCCNC(=N)N)C(=O)O [UAG]	increase serum glucose levels significantly; also recorded: increases serum glucose levels significantly more than AG	to a lesser extent, UAG, induces a significant hyperglycemia	This does not occur	increased insulin levels the most, followed UAG	This does not occur	could not be observed	–	–	–	–	–	–
Gly-Ser-[octanoyl]Ser-Phe-Leu-Ser-Pro-Glu-His-Gln-Arg-Val-Gln-Arg-Lys-Glu-Ser-Lys-Lys-Pro-Pro-Ala-Lys-Leu-Gln-Pro-Arg (GSS(Octanoyl)FLSPEHQRVQRKESKKPPAKLQPR; listed as Homo sapiens) [des Gln-14 ghrelin]	–	–	–	–	–	–	elicits Ca^2+ fluxes in cloned cells	induces GH secretion with similar potency as Ghrelin-28	–	–	–	–
CCCCCCCC(=O)OC[C@H](NC(=O)[C@H](CO)NC(=O)CN)C(=O)N[C@@H](Cc1ccccc1)C(=O)N[C@@H](CC(C)C)C(=O)N[C@@H](CO)C(=O)N1CCC[C@H]1C(=O)N[C@@H](CCC(=O)O)C(=O)N[C@@H](Cc1cnc[nH]1)C(=O)N[C@@H](CCC(N)=O)C(=O)N[C@@H](CCCNC(=N)N)C(=O)N[C@H](C(=O)N[C@@H](CCC(N)=O)C(=O)N[C@@H](CCC(N)=O)C(=O)N[C@@H](CCCNC(=N)N)C(=O)N[C@@H](CCCCN)C(=O)N[C@@H](CCC(=O)O)C(=O)N[C@@H](CO)C(=O)N[C@@H](CCCCN)C(=O)N[C@@H](CCCCN)C(=O)N1CCC[C@H]1C(=O)N1CCC[C@H]1C(=O)N[C@@H](C)C(=O)N[C@@H](CCCCN)C(=O)N[C@@H](CC(C)C)C(=O)N[C@@H](CCC(N)=O)C(=O)N1CCC[C@H]1C(=O)N[C@@H](CCCNC(=N)N)C(=O)O)C(C)C [AG]	increase serum glucose levels significantly	induces a significant hyperglycemia	–	increased insulin levels the most	immediately increases glucose and insulin levels	significantly increased FFA levels after lunch, compared to placebo	–	–	induces an acute increase in unacylated ghrelin levels	immediately increases glucose and insulin levels	at least 6 hours	decreases insulin sensitivity, compared to placebo
